Experimental findings from the supplement of paper PMC10307832 are described below.

Holding throughout (experiment): relative viability (nuclei count vs DMSO), 5 days (fraction); higher = more cells survive
Compound in experiment [1]: CO[C@@H]1[C@H](N(C)C(=O)c2ccccc2)C[C@H]2O[C@]1(C)n1c3ccccc3c3c4c(c5c6ccccc6n2c5c31)C(=O)NC4 [Midostaurin] + Cc1cc(Nc2cc(N3CCN(C)CC3)nc(Sc3ccc(NC(=O)C4CC4)cc3)n2)n[nH]1 [Tozasertib] (partner 0.1 µM)
An outline of the steps: (§1)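 Relative viability is defined as nuclei in treated wells over nuclei in vehicle wells. Duplicate plates were run and medians reported. Lung cancer cell lines in 1536-well plates were dosed by pin tool one day after seeding, with one drug or with a fixed anchor-drug dose plus five library-drug doses (not always all listed) in √10 steps, and nuclei were counted after 5 days.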

Compound in experiment [2]: CO[C@@H]1[C@H](N(C)C(=O)c2ccccc2)C[C@H]2O[C@]1(C)n1c3ccccc3c3c4c(c5c6ccccc6n2c5c31)C(=O)NC4 [Midostaurin] + COc1cccc2cc(-c3nc([C@H]4CC[C@H](C(=O)O)CC4)n4ncnc(N)c34)[nH]c12 [OSI-027] (partner 0.5 µM)
An outline of the steps: as §1

Compound in experiment [3]: COc1cc(-c2nn([C@H]3CC[C@H](N4CCN(C(C)=O)CC4)CC3)c3ncnc(N)c23)ccc1NC(=O)c1cc2ccccc2n1C + CCNC(=O)c1noc(-c2cc(C(C)C)c(O)cc2O)c1-c1ccc(CN2CCOCC2)cc1 [Luminespib] (partner 0.01 µM)
An outline of the steps:
as §1

Compound in experiment [4]: COc1cc(-c2nn([C@H]3CC[C@H](N4CCN(C(C)=O)CC4)CC3)c3ncnc(N)c23)ccc1NC(=O)c1cc2ccccc2n1C + Cc1nc(NC(=O)N2CCC[C@H]2C(N)=O)sc1-c1ccnc(C(C)(C)C(F)(F)F)c1 [Alpelisib] (partner 2 µM)
An outline of the steps:
as §1

Compound in experiment [5]: CO[C@@H]1[C@H](N(C)C(=O)c2ccccc2)C[C@H]2O[C@]1(C)n1c3ccccc3c3c4c(c5c6ccccc6n2c5c31)C(=O)NC4 [Midostaurin] + NC(=O)Nc1cc(-c2cccc(F)c2)sc1C(=O)N[C@H]1CCCNC1 [AZD7762] (partner 0.2 µM)
The procedure, abridged:
as §1

On to NCI-H1355, for which the relative viability is 0.544 in experiment [1] (first compound 0.01 µM); 0.632 in experiment [1] (first compound 0.03162 µM); 0.597 in experiment [1] (first compound 0.1 µM); 0.475 in experiment [1] (first compound 0.3162 µM); 0.431 in experiment [2] (first compound 0.01 µM); 0.425 in experiment [2] (first compound 0.03162 µM). The relative viability in experiment [2] (first compound 0.1 µM) is 0.39; in experiment [2] (first compound 0.3162 µM), 0.492; in experiment [3] (first compound 0.0128 µM), 0.798; in experiment [3] (first compound 0.04048 µM), 0.7; in experiment [3] (first compound 0.128 µM), 0.726; in experiment [3] (first compound 1.28 µM), 0.639. For the same cell line, the relative viability in experiment [4] (first compound 0.0128 µM) amounted to 0.981; in experiment [4] (first compound 0.04048 µM), 0.795; in experiment [4] (first compound 0.128 µM), 0.828; in experiment [4] (first compound 1.28 µM) it was 0.737; in experiment [5] (first compound 0.01 µM) it was 0.703; in experiment [5] (first compound 0.03162 µM), 0.798. Besides, the relative viability in experiment [5] (first compound 0.1 µM) worked out at 0.766; in experiment [5] (first compound 0.3162 µM), 0.674.

In the case of H3255, the relative viability in experiment [1] (first compound 0.01 µM) amounted to 0.624; in experiment [1] (first compound 0.03162 µM), 0.635; in experiment [1] (first compound 0.1 µM) it was 0.61; in experiment [1] (first compound 0.3162 µM) it was 0.695; in experiment [2] (first compound 0.01 µM) it was 0.592; in experiment [2] (first compound 0.03162 µM), 0.512. Further, the relative viability in experiment [2] (first compound 0.1 µM) was found to be 0.622; in experiment [2] (first compound 0.3162 µM), 0.593; in experiment [3] (first compound 0.0128 µM), 0.959; in experiment [3] (first compound 0.04048 µM) it was 1.06; in experiment [3] (first compound 0.128 µM), 0.848; in experiment [3] (first compound 1.28 µM), 0.701. In addition, the relative viability in experiment [4] (first compound 0.0128 µM) was 0.886; in experiment [4] (first compound 0.04048 µM), 0.615; in experiment [4] (first compound 0.128 µM), 0.607; in experiment [4] (first compound 1.28 µM) it was 0.433; in experiment [5] (first compound 0.01 µM), 0.857; in experiment [5] (first compound 0.03162 µM) it was 0.786. Also, the relative viability worked out at 0.915 in experiment [5] (first compound 0.1 µM) and 0.89 in experiment [5] (first compound 0.3162 µM).

Consider NCI-H1993, for which the relative viability in experiment [1] (first compound 0.01 µM) is 0.595; in experiment [1] (first compound 0.03162 µM), 0.606; in experiment [1] (first compound 0.1 µM), 0.545; in experiment [1] (first compound 0.3162 µM), 0.599; in experiment [2] (first compound 0.01 µM) it was 0.519; in experiment [2] (first compound 0.03162 µM) it was 0.546. Further, the relative viability in experiment [2] (first compound 0.1 µM) worked out at 0.54; in experiment [2] (first compound 0.3162 µM), 0.576; in experiment [3] (first compound 0.0128 µM), 0.768; in experiment [3] (first compound 0.04048 µM), 0.825; in experiment [3] (first compound 0.128 µM), 0.589; in experiment [3] (first compound 1.28 µM) it was 0.767. Further, the relative viability in experiment [4] (first compound 0.0128 µM) came to 0.76; in experiment [4] (first compound 0.04048 µM), 0.771; in experiment [4] (first compound 0.128 µM), 0.599; in experiment [4] (first compound 1.28 µM), 0.569; in experiment [5] (first compound 0.01 µM) it was 0.762; in experiment [5] (first compound 0.03162 µM) it was 0.77. For the same cell line, the relative viability in experiment [5] (first compound 0.1 µM) was determined as 0.699; in experiment [5] (first compound 0.3162 µM), 0.5.

NCI-H1734: the relative viability in experiment [1] (first compound 0.01 µM) is 0.239; in experiment [1] (first compound 0.03162 µM) it was 0.276; in experiment [1] (first compound 0.1 µM), 0.294; in experiment [1] (first compound 0.3162 µM), 0.267; in experiment [2] (first compound 0.01 µM) it was 0.57; in experiment [2] (first compound 0.03162 µM), 0.589. Besides, the relative viability in experiment [2] (first compound 0.1 µM) stood at 0.632; in experiment [2] (first compound 0.3162 µM), 0.552; in experiment [3] (first compound 0.0128 µM), 0.219; in experiment [3] (first compound 0.04048 µM), 0.19; in experiment [3] (first compound 0.128 µM) it was 0.16; in experiment [3] (first compound 1.28 µM), 0.172. Also, the relative viability came to 0.684 in experiment [4] (first compound 0.0128 µM); 0.636 in experiment [4] (first compound 0.04048 µM); 0.716 in experiment [4] (first compound 0.128 µM); 0.573 in experiment [4] (first compound 1.28 µM); 0.498 in experiment [5] (first compound 0.01 µM); 0.537 in experiment [5] (first compound 0.03162 µM). Besides, the relative viability in experiment [5] (first compound 0.1 µM) amounted to 0.543; in experiment [5] (first compound 0.3162 µM) it was 0.39.

As for HOP-62, the relative viability in experiment [1] (first compound 0.01 µM) is 0.363; in experiment [1] (first compound 0.03162 µM), 0.431; in experiment [1] (first compound 0.1 µM) it was 0.303; in experiment [1] (first compound 0.3162 µM), 0.321; in experiment [2] (first compound 0.01 µM) it was 0.779; in experiment [2] (first compound 0.03162 µM), 0.754. Besides, the relative viability in experiment [2] (first compound 0.1 µM) turned out to be 0.947; in experiment [2] (first compound 0.3162 µM) it was 0.686; in experiment [3] (first compound 0.0128 µM), 0.972; in experiment [3] (first compound 0.04048 µM), 0.823; in experiment [3] (first compound 0.128 µM) it was 1; in experiment [3] (first compound 1.28 µM), 0.879. For the same cell line, the relative viability in experiment [4] (first compound 0.0128 µM) was 1.04; in experiment [4] (first compound 0.04048 µM), 0.907; in experiment [4] (first compound 0.128 µM), 0.952; in experiment [4] (first compound 1.28 µM) it was 0.774; in experiment [5] (first compound 0.01 µM) it was 0.527; in experiment [5] (first compound 0.03162 µM), 0.568. Further, the results for the relative viability in experiment [5] (first compound 0.1 µM) and in experiment [5] (first compound 0.3162 µM) were 0.727 and 0.553, respectively.

For LOU-NH91, the relative viability in experiment [1] (first compound 0.01 µM) is 0.722; in experiment [1] (first compound 0.03162 µM), 0.608; in experiment [1] (first compound 0.1 µM), 0.653; in experiment [1] (first compound 0.3162 µM) it was 0.642; in experiment [2] (first compound 0.01 µM) it was 0.74; in experiment [2] (first compound 0.03162 µM) it was 0.67. The relative viability turned out to be 0.747 in experiment [2] (first compound 0.1 µM); 0.802 in experiment [2] (first compound 0.3162 µM); 0.413 in experiment [3] (first compound 0.0128 µM); 0.28 in experiment [3] (first compound 0.04048 µM); 0.352 in experiment [3] (first compound 0.128 µM); 0.321 in experiment [3] (first compound 1.28 µM). Also, the relative viability in experiment [4] (first compound 0.0128 µM) is 0.77; in experiment [4] (first compound 0.04048 µM), 0.74; in experiment [4] (first compound 0.128 µM) it was 0.759; in experiment [4] (first compound 1.28 µM) it was 0.564; in experiment [5] (first compound 0.01 µM), 0.791; in experiment [5] (first compound 0.03162 µM), 0.724. The results for the relative viability in experiment [5] (first compound 0.1 µM) and in experiment [5] (first compound 0.3162 µM) were 0.778 and 0.809, respectively.

For the cell line PC-14, the relative viability in experiment [1] (first compound 0.01 µM) stood at 0.616; in experiment [1] (first compound 0.03162 µM) it was 0.574; in experiment [1] (first compound 0.1 µM) it was 0.598; in experiment [1] (first compound 0.3162 µM), 0.491; in experiment [2] (first compound 0.01 µM), 0.92; in experiment [2] (first compound 0.03162 µM) it was 0.811. Moreover, the relative viability in experiment [2] (first compound 0.1 µM) is 0.875; in experiment [2] (first compound 0.3162 µM), 1.02; in experiment [3] (first compound 0.0128 µM) it was 0.196; in experiment [3] (first compound 0.04048 µM), 0.138; in experiment [3] (first compound 0.128 µM) it was 0.232; in experiment [3] (first compound 1.28 µM), 0.121. The relative viability in experiment [4] (first compound 0.0128 µM) was 1.01; in experiment [4] (first compound 0.04048 µM) it was 0.951; in experiment [4] (first compound 0.128 µM), 0.902; in experiment [4] (first compound 1.28 µM) it was 0.852; in experiment [5] (first compound 0.01 µM) it was 0.33; in experiment [5] (first compound 0.03162 µM), 0.42. Besides, the figures for the relative viability in experiment [5] (first compound 0.1 µM) and in experiment [5] (first compound 0.3162 µM) were 0.329 and 0.328, respectively.
